Laboratory results reported in patent publication US12503436B2, “Compounds and compositions for treating conditions associated with STING activity” (NOVARTIS PHARMA AG, priority 2021, dated 2025).

Molecular target: STING (Homo sapiens, UniProt Q86WV6, G230A/H232R/R293Q/R71H)
Assay: STING reporter assay in THP1-Dual KO-IFNAR2 cells (2′3′cGAMP stimulation, luciferase reporter)
Assay type: cell-based
Conditions: 15 μM 2′3′cGAMP stimulation, 24 h, read-out: Pharmaron, THP1_IFNAR2 STING 24 h Luci Normalized: GeoMean EC50
How it was run: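 THP1-Dual KO-IFNAR2 cells (2×10E6 cells/mL) with compounds at 0.0017-100 μM final, stimulated with 15 μM final 2′3′cGAMP delivered by Lipofectamine 2000; 24 h at 37 °C. Luciferase in supernatant read with QUANTI-Luc Plus; EC50 derived from luminescence.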

Chain of STING (Q86WV6 whole entry R71H/G230A/H232R/R293Q): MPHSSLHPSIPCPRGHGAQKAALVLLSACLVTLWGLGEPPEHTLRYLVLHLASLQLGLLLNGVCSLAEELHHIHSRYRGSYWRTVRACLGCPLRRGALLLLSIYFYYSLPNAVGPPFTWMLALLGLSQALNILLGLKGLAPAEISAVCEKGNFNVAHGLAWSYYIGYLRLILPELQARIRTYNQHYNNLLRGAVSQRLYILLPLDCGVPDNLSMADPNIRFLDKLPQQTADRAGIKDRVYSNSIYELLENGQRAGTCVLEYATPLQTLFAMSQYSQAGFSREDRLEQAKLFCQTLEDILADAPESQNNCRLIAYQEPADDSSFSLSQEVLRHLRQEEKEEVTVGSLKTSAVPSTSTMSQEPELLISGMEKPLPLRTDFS

| Compound | EC50 |
| --- | --- |
| CC(=O)Nc1c[nH]c2ccc(CC(O)Cc3ccc(C(F)(F)F)cc3)cc12 (stereo not shown) [Compound 284, N-(5-(2-hydroxy-3-(4-(trifluoromethyl)phenyl)propyl)-1H-indol-3-yl)acetamide] | 200 to 1000 nM |
| CC(=O)Nc1c[nH]c2c(C)cc(CCOc3ccc(C(F)(F)F)cc3)cc12 [Compound 264, N-(7-methyl-5-(2-(4-(trifluoromethyl)phenoxy)ethyl)-1H-indol-3-yl)acetamide] | 1000 to 5000 nM |
| CC(=O)Nc1c[nH]c2ccc(CNS(=O)(=O)c3ccc(C(F)(F)F)cc3)cc12 [Compound 265, N-(5-(((4-(trifluoromethyl)phenyl)sulfonamido)methyl)-1H-indol-3-yl)acetamide] | 5000 to 100000 nM |
| CC1(F)CC(C(=O)Nc2c[nH]c3ccc(CCOc4ccc(C(F)(F)F)cc4)cc23)C1 (stereo not shown) [Compound 395, 3-fluoro-3-methyl-N-(5-(2-(4-(trifluoromethyl)phenoxy)ethyl)-1H-indol-3-yl)cyclobutane-1-carboxamide] | 200 to 1000 nM |
| N#C[C@H]1C[C@@H]1C(=O)Nc1c[nH]c2ccc(OCCc3ccc(C(F)(F)F)cc3)cc12 [Compound 203, (1S,2S)-2-cyano-N-(5-(4-(trifluoromethyl)phenethoxy)-1H-indol-3-yl)cyclopropane-1-carboxamide] | 200 to 1000 nM |
| CC(C)(C)OC(=O)N1CC(C)(C(=O)Nc2c[nH]c3ccc(O[C@H]4C[C@H](c5ccc(C(F)(F)F)cc5)C4)cc23)C1 [Compound 568, tert-butyl 3-methyl-3-((5-(trans-3-(4-(trifluoromethyl)phenyl)cyclobutoxy)-1H-indol-3-yl)carbamoyl)azetidine-1-carboxylate] | 200 to 1000 nM |
| CC(=O)Nc1c[nH]c2ccc(CCOc3ccc(-c4csc(C)n4)cc3)cc12 [Compound 475, N-(5-{2-[4-(2-methyl-1,3-thiazol-4-yl)phenoxy]ethyl} -1H-indol-3-yl)acetamide] | 1000 to 5000 nM |
| CC(=O)Nc1c[nH]c2ccc(CCOc3cc(Cl)cc(C#N)c3)cc12 [Compound 476, N-{5-[2-(3-chloro-5-cyanophenoxy)ethyl]-1H-indol-3-yl}acetamide] | 1000 to 5000 nM |
| C[C@H]1C[C@H](C(=O)Nc2c[nH]c3ccc(CCOc4ccc(C(F)(F)F)cc4)cc23)C1 [Compound 392, trans-3-methyl-N-(5-(2-(4-(trifluoromethyl)phenoxy)ethyl)-1H-indol-3-yl)cyclobutane-1-carboxamide] | 200 to 1000 nM |
| COCCC(=O)Nc1c[nH]c2ccc(O[C@H]3C[C@H](c4ccc(C(F)(F)F)cc4)C3)cc12 [Compound 241, 3-methoxy-N-(5-((1r,3r)-3-(4-(trifluoromethyl)phenyl)cyclobutoxy)-1H-indol-3-yl)propanamide] | 40 to 200 nM |
| COCCOCC(=O)Nc1c[nH]c2ccc(CCOc3ccc(C(F)(F)F)cc3)cc12 [Compound 406, 2-(2-methoxyethoxy)-N-(5-(2-(4-(trifluoromethyl)phenoxy)ethyl)-1H-indol-3-yl)acetamide] | 200 to 1000 nM |
| N#CC1(C(=O)Nc2c[nH]c3ccc(CCOc4ccc(C(F)(F)F)cc4)cc23)CC1 [Compound 398, 1-cyano-N-(5-(2-(4-(trifluoromethyl)phenoxy)ethyl)-1H-indol-3-yl)cyclopropane-1-carboxamide] | 200 to 1000 nM |
| CC(=O)Nc1c[nH]c2ccc(CCOc3ccc(C4CC(F)(F)C4)cc3)cc12 [Compound 225, N-(5-(2-(4-(3,3-difluorocyclobutyl)phenoxy)ethyl)-1H-indol-3-yl)acetamide] | 40 to 200 nM |
| O=C(Nc1c[nH]c2ccc(O[C@H]3C[C@@H](c4ccc(C(F)(F)F)cc4)C3)cc12)C1CC1 [Compound 266, N-(5-(cis-3-(4-(trifluoromethyl)phenyl)cyclobutoxy)-1H-indol-3-yl)cyclopropanecarboxamide] | 40 to 200 nM |
| CC(C)(C)OC(=O)N1CC(C(=O)Nc2c[nH]c3ccc(O[C@H]4C[C@H](c5ccc(C(F)(F)F)cc5)C4)cc23)C1 [Compound 466, tert-butyl 3-((5-(trans-3-(4-(trifluoromethyl)phenyl)cyclobutoxy)-1H-indol-3-yl)carbamoyl)azetidine-1-carboxylate] | 200 to 1000 nM |
| COCC(=O)Nc1c[nH]c2ccc(COc3ccc(C(F)(F)F)cc3)cc12 [Compound 273, 2-methoxy-N-(5-((4-(trifluoromethyl)phenoxy)methyl)-1H-indol-3-yl)acetamide] | 40 to 200 nM |
| CC1(C(=O)Nc2c[nH]c3ccc(OC4CC(c5ccc(C(F)(F)F)nc5)C4)cc23)CC1 (stereo not shown) [Compound 376, 1-methyl-N-(5-(3-(6-(trifluoromethyl)pyridin-3-yl)cyclobutoxy)-1H-indol-3-yl)cyclopropane-1-carboxamide] | 200 to 1000 nM |
| CC(=O)Nc1c[nH]c2ccc(O[C@H]3C[C@H](c4ccc(C(F)(F)F)cc4)C3)cc12 [Compound 103, N-(5-(trans-3-(4-(trifluoromethyl)phenyl)cyclobutoxy)-1H-indol-3-yl)acetamide] | 40 to 200 nM |
| C[C@H]1C[C@@H](C(=O)Nc2c[nH]c3ccc(CCOc4ccc(C(F)(F)F)cc4)cc23)C1 [Compound 393, cis-3-methyl-N-(5-(2-(4-(trifluoromethyl)phenoxy)ethyl)-1H-indol-3-yl)cyclobutane-1-carboxamide] | 200 to 1000 nM |
| CC(=O)Nc1c[nH]c2ccc(CCOc3ccc(C(F)(F)F)cc3C#N)cc12 [Compound 440, N-(5-{2-[2-cyano-4-(trifluoromethyl)phenoxy]ethyl}-1H-indol-3-yl)acetamide] | 1000 to 5000 nM |
| CC(=O)Nc1c[nH]c2ccc(CCSc3ccc(C(F)(F)F)cc3)cc12 [Compound 256, N-(5-(2-((4-(trifluoromethyl)phenyl)thio)ethyl)-1H-indol-3-yl)acetamide] | 200 to 1000 nM |

More lines, now with the values ahead:

| EC50 | Compound |
| --- | --- |
| 1000 to 5000 nM | CC(=O)Nc1c[nH]c2ccc(OCCC3CCCN(CC(F)(F)F)C3)cc12 (single isomer, unassigned) [Compound 279] |
| 1000 to 5000 nM | CC(=O)Nc1c[nH]c2ccc(OCCC3CCCN(CC(F)(F)F)C3)cc12 (single isomer, unassigned) [Compound 280] |
| 200 to 1000 nM | N#CC1(C(=O)Nc2c[nH]c3ccc(OCC[C@@H]4C[C@@H]5CN(CC(F)(F)F)C[C@@H]5C4)cc23)CC1 [Compound 370, 1-cyano-N-(5-(2-((3aR,5r,6aS)-2-(2,2,2-trifluoroethyl)octahydrocyclopenta[c]pyrrol-5-yl)ethoxy)-1H-indol-3-yl)cyclopropane-1-carboxamide] |
| 40 to 200 nM | CC1(C)CC(C(=O)Nc2c[nH]c3ccc(OCCc4ccc(C(F)(F)F)cc4)cc23)C1 [Compound 236, 3,3-dimethyl-N-(5-(4-(trifluoromethyl)phenethoxy)-1H-indol-3-yl)cyclobutane-1-carboxamide] |
| 5000 to 100000 nM | CC(=O)Nc1c[nH]c2ccc(OCC3Cc4cn(CC(F)(F)F)nc4C3)cc12 (stereo not shown) [Compound 447, N-(5-((2-(2,2,2-trifluoroethyl)-2,4,5,6-tetrahydrocyclopenta[c]pyrazol-5-yl)methoxy)-1H-indol-3-yl)acetamide] |
| 40 to 200 nM | C[C@]1(C(=O)Nc2c[nH]c3ccc(OCCc4ccc(C(F)(F)F)cc4)cc23)C[C@@H](CO)C1 [Compound 531, cis-3-(hydroxymethyl)-1-methyl-N-(5-(4-(trifluoromethyl)phenethoxy)-1H-indol-3-yl)cyclobutane-1-carboxamide] |
| 40 to 200 nM | O=C(Nc1c[nH]c2ccc(OCCc3ccc(C(F)(F)F)cc3)cc12)C1CC(CO)C1 (stereo not shown) [Compound 312, 3-(hydroxymethyl)-N-(5-(4-(trifluoromethyl)phenethoxy)-1H-indol-3-yl)cyclobutane-1-carboxamide] |
| 5000 to 100000 nM | CC(=O)Nc1c[nH]c2ccc(CCOc3ccnc(C4CC4)c3)cc12 [Compound 463] |
| 40 to 200 nM | C[C@H]1C[C@H](C(=O)Nc2c[nH]c3ccc(OCCc4ccc(C(F)(F)F)cc4)cc23)C1 [Compound 205, trans-3-methyl-N-(5-(4-(trifluoromethyl)phenethoxy)-1H-indol-3-yl)cyclobutane-1-carboxamide] |
| 40 to 200 nM | CC(=O)Nc1c[nH]c2ccc(CCOc3ccc(CC(F)(F)F)cc3)cc12 [Compound 442, N-(5-{2-[4-(2,2,2-trifluoroethyl)phenoxy]ethyl}-1H-indol-3-yl)acetamide] |
| 5000 to 100000 nM | CC(=O)Nc1c[nH]c2ccc(CCOC3CCN(CC(F)(F)F)CC3)cc12 [Compound 288, N-(5-(2-((1-(2,2,2-trifluoroethyl)piperidin-4-yl)oxy)ethyl)-1H-indol-3-yl)acetamide] |
| 40 to 200 nM | COCC1(C(=O)Nc2c[nH]c3ccc(OCCc4ccc(C(F)(F)F)cc4)cc23)CC1 [Compound 204, 1-(methoxymethyl)-N-(5-(4-(trifluoromethyl)phenethoxy)-1H-indol-3-yl)cyclopropane-1-carboxamide] |
| 200 to 1000 nM | COCC(=O)Nc1c[nH]c2ccc(OCCC3CCN(CC(F)(F)F)CC3)cc12 [Compound 117, 2-methoxy-N-(5-(2-(1-(2,2,2-trifluoroethyl)piperidin-4-yl)ethoxy)-1H-indol-3-yl)acetamide] |
| 200 to 1000 nM | O=C(Nc1c[nH]c2ccc(OCc3ccc(C(F)(F)F)cc3)cc12)C1COC1 [Compound 381, N-(5-((4-(trifluoromethyl)benzyl)oxy)-1H-indol-3-yl)oxetane-3-carboxamide] |
| 40 to 200 nM | CO[C@H]1C[C@H](C(=O)Nc2c[nH]c3ccc(OCC[C@@H]4C[C@@H]5CN(CC(F)(F)F)C[C@@H]5C4)cc23)C1 [Compound 296, trans-3-methoxy-N-(5-(2-((3aR,5r,6aS)-2-(2,2,2-trifluoroethyl)octahydrocyclopenta[c]pyrrol-5-yl)ethoxy)-1H-indol-3-yl)cyclobutane-1-carboxamide] |
| 200 to 1000 nM | N#CC1CCC1C(=O)Nc1c[nH]c2ccc(OCC[C@@H]3C[C@@H]4CN(CC(F)(F)F)C[C@@H]4C3)cc12 (stereo partly drawn) [Compound 304, 2-cyano-N-(5-(2-((3aR,5r,6aS)-2-(2,2,2-trifluoroethyl)octahydrocyclopenta[c]pyrrol-5-yl)ethoxy)-1H-indol-3-yl)cyclobutane-1-carboxamide] |
